Data taken from patent US10500197B2, “Use of oligopyridylamides to inhibit mutant p53 amyloid formation and restore its tumor suppressor function” (New York University, priority 2017, dated 2019).
“Also recorded” adds a separate entry of the source. Where no end group is shown, it is not given here.

Key:
[1] = test system: COS-7 cells (wild-type p53); assay: MTS cell viability in COS-7 cells; assay type: cell-based; details: 5 and 10 μM, 24 hours, serum-free media
Method: (§1) MTS assays were performed with Promega CellTiter One MTS solution according to protocol. MIA PaCa-2 cells were seeded at 2,000 cells/well, MCF-7 at 4,000 cells/well, COS-7 at 5,000 cells/well and HeLa at 3,000 cells/well. These values were individually optimized for the assay prior to experimentation. All cells were incubated for 24 hours to allow proper adherence to the well. On treatment day, wells were washed with warm PBS and media was replaced with a serum-free version. If treatment peptides were purified from crude form, they were also filtered using a 0.2 µm filter before introduction to cells. On MTS reading day, media was changed again (serum-free) and 20 μL of MTS was added to each 100 μL well. Cells were incubated at 37° C. for 2 hours before reading absorbance at 490 nm using Synergy H1 (BioTek) equipped with Gen5 software. Background absorbance from control wells was quantified and subtracted from obtained experimental absorbance values.
(§2) It has been shown that the ADH compounds have no toxic effect on N2a cells, which carry wild-type p53. Their effect on other wild-type p53 cell lines: MCF-7 and COS-7 was further investigated. Cells were incubated with ADH compounds 17, 27, 40, 41 and 46 for 24 hours at 5 and 10 μM in serum-free media before determining cell viability via MTS (FIG. 2).

[2] = test system: MIA PaCa-2 cells (R248W p53 mutant); assay: MTS cell viability assay in MIA PaCa-2 cells; assay type: cell-based; details: 5 and 10 μM, 24 and 48 hours, serum-free media
Method: MIA PaCa-2 (CRL-1420) cells, which contain the R248W p53 contact mutant, were obtained from ATCC and cultured in ATCC-formulated Dulbecco's Modified Eagle's Medium supplemented with 10% fetal bovine serum (FBS), 2.5% horse serum, 4% 200 mM L-glutamine and 1% penicillin/streptomycin. A separate stock of serum-free medium was kept for cell viability assays. Cells were split at a 1:3 ratio 2-3 times a week and maintained at 80% confluence and >85% viability. Viability was regularly measured through Trypan Blue dilution correction during cell counting. Cell cultures were stored at 37° C. in T75 coated flasks and kept under 5% CO2.
MTS assays were performed with Promega CellTiter One MTS solution according to protocol. MIA PaCa-2 Cells were seeded at 2,000 cells/well and were incubated for 24 hours to allow proper adherence to the well. On treatment day, wells were washed with warm PBS and media was replaced with a serum-free version. If treatment peptides were purified from crude form, they were also filtered using a 0.2 µm filter before introduction to cells. On MTS reading day, media was changed again (serum-free) and 20 μL of MTS was added to each 100 μL well. Cells were incubated at 37° C. for 2 hours before reading absorbance at 490 nm using Synergy H1 (BioTek) equipped with Gen5 software.
as §1
The two classes of designed peptide inhibitors have been introduced to a cancer cell-line that harbors the R248W p53 mutant, MIA PaCa-29. It has been hypothesized that upon co-localization of the inhibitors with mutant p53, mutant p53 aggregates will be abrogated, resulting in the release of wild-type p53 from cellular inclusions and, eventually, the induction of apoptosis. The 4 designed peptides were introduced to MIA PaCa-2 cells at 5 and 10 μM for 24 and 48 hour incubation periods. MTS assay was used to assess cell viability after treatment, whereby the bio-reduction of the MTS tetrazolium compound results in detectable color change that is proportional to the number of viable cells left in a sample (see Example 1).
MIA PaCa-2 cells were incubated with ADH compounds 17, 27, 31, 37, 39, 40, 41, 45, 46, and 52 (5 and 10 μM) for 24 and 48 hours. Cell viability was determined using the MTS assay.

[3] = test system: MCF-7 cells (wild-type p53); assay: MTS cell viability in MCF-7 cells; assay type: cell-based; details: 5 and 10 μM, 24 hours, serum-free media
Method: as §1, §2

[4] = biological target: R248W mutant p53 peptide (Homo sapiens, UniProt P04637, R248W); assay: Thioflavin T (ThT) assay, inhibition of R248W peptide aggregation; assay type: biochemical; details: 1:1 ratio to R248W peptide, 37° C., 10 hours
Method: (§3) This fluorescence can be monitored overtime to estimate the increase in beta-sheet structure of incubated peptides, indicating amyloid formation. […] 50 μM ThT was incubated at 37° C. with varying concentrations of peptides and inhibitors to estimate both the aggregation propensity of mutant peptides and the abrogation of aggregation brought about by inhibitor treatment. All samples were sonicated, including the ThT solution, prior to each addition of peptides to ensure the obtainment of clear sigmoidal curves. Fluorescence in transparent-bottom 96-well sample plates was monitored by the cell plate reader Synergy H1 (BioTek).
To test the inhibition efficacy of these peptides, they were subjected to a ThT assay whereby a fixed concentration of R248W was treated with varying concentrations of the respective inhibitor peptide in the presence of ThT dye and buffer. […] It is hypothesized that this effect is due to the relative hydrophobicity of the PAS sequence (FFLIPKG) (FIG. 4B).
10 compounds based on the oligopyridylamide molecular scaffolds have been tested on mutant p53 aggregation models. A ThT assay was used to test the inhibition capability of each compound at a 1:1 ratio to the R248W mutant peptide.

[5] = biological target: R248W mutant p53 peptide aggregates (Homo sapiens, UniProt P04637, R248W); assay: Multi-step ThT assay, abrogation of pre-formed R248W aggregates; assay type: biochemical; details: 50 μM R248W incubated 35 minutes at 37° C., then equimolar ADH compound
Method: as §3
Accordingly, a multi-step ThT assay was designed that would evaluate the ability of an inhibitor to abrogate aggregation at different stages of amyloid formation. Based on the sigmoidal curve produced in ThT assays of the R248W peptide, 3 time points were selected to introduce the inhibitor to mutant p53 aggregates. The first would occur at 0 mins, where no R248W aggregates would have been previously formed. The second time point would be approximately 30 mins after aggregation begins, during the exponential increase in fluorescence of the R248W ThT sigmoidal curve. The last time point would be during the plateau phase of the curve at approximately 5 hours after initiation of the assay, whereby aggregates reach an equilibrium phase and stabilize in solution.
In order to target p53 aggregation in the cellular environment, the ADH compounds according to the invention would need to bind and abrogate pre-formed p53 aggregates, as well as prevent additional aggregation. Inhibition of pre-formed aggregates would be a crucial feature of therapeutics that successfully target mutant p53 aggregation in cancer. Using the multi-step thioflavin T assay, where the inhibitor is added to R248W at either elongation or the plateau phases of amyloid formation, 50 μM of the R248W peptide was incubated at 37° C. for 35 minutes before adding an equimolar ratio of the ADH compound (FIG. 1).

[6] = test system: HeLa cells; assay: MTS cell viability in HeLa cells; assay type: cell-based; details: 5 or 10 μM, 24 hours, serum-free media
Method: as §1
It has been hypothesized that the ADH compounds may bind to wild-type p53 in a manner that preserves its main function, yet disrupts other protein-protein interactions in the cellular environment. HeLa cells are known to have very low p53 expression levels, which is attributed to the expression of the HPV-E6 protein. E6 proteins target p53 for proteasomal degradation via the ubiquitin pathway by binding to p53's core domain (residues 94-292) and C-terminus. Because it has been hypothesized that the effective ADH compounds (40, 41, and 46) target the p53 DNA-binding domain located in its core region, the compounds may prevent E6 binding, leading to p53 accumulation and eventually apoptosis. […] Since ReACp53 is a sequence-specific peptide that targets the p53 DNA-binding domain, it may also prevent E6 binding through a similar mechanism.

## COC(=O)c1ccc(NC(=O)c2ccc(NC(=O)c3ccc([N+](=O)[O-])c(OCC(=O)O)n3)c(OCc3ccccc3)n2)c(OCC(=O)O)n1 [ADH-17]
[1]
  toxicity in COS-7 cells (MTS): No significant toxicity; also recorded: do not induce significant toxicity
[2]
  effect of ADH compounds on MIA PaCa-2 cell viability (MTS): non-toxic effects
[3]
  toxicity in MCF-7 cells (MTS): No significant toxicity; also recorded: do not induce significant toxicity

## COC(=O)c1ccc(NC(=O)c2ccc(NC(=O)c3ccc([N+](=O)[O-])c(OCc4ccccc4)n3)c(OCC(=O)O)n2)c(OCC(=O)O)n1 [ADH-27]
[1]
  toxicity in COS-7 cells (MTS): No significant toxicity; also recorded: do not induce significant toxicity
[3]
  toxicity in MCF-7 cells (MTS): No significant toxicity; also recorded: do not induce significant toxicity

## COC(=O)c1ccc(NC(=O)c2ccc(NC(=O)c3ccc(NC(=O)c4ccc([N+](=O)[O-])c(OCC(C)C)n4)c(OCc4ccccc4)n3)c(OCC(=O)O)n2)c(OCC(=O)O)n1 [ADH-31]
[4]
  inhibition of R248W mutant p53 aggregation by ADH compounds (ThT fluorescence): inhibit mutant p53 aggregation with varying levels of effectiveness

## COC(=O)c1ccc(NC(=O)c2ccc(NC(=O)c3ccc([N+](=O)[O-])c(OCCCN)n3)c(OCc3ccccc3)n2)c(OCCCN)n1 [ADH-37]
[4]
  inhibition of R248W mutant p53 aggregation by ADH compounds (ThT fluorescence): inhibit mutant p53 aggregation with varying levels of effectiveness

## COC(=O)c1ccc(NC(=O)c2ccc(NC(=O)c3ccc([N+](=O)[O-])c(OC(C)C)n3)c(OCc3ccccc3)n2)c(OCCCN)n1 [ADH-39]
[4]
  inhibition of R248W mutant p53 aggregation by ADH compounds (ThT fluorescence): inhibit mutant p53 aggregation with varying levels of effectiveness

## CCCCOc1nc(C(=O)Nc2ccc(C(=O)Nc3ccc(C(=O)OC)nc3OCCCN)nc2OCCCN)ccc1[N+](=O)[O-] [ADH-40]
[1]
  toxicity in COS-7 cells (MTS): No significant toxicity; also recorded: do not induce significant toxicity
[5]
  abrogation of R248W aggregates at the elongation phase: abrogate aggregation at the elongation phase; also recorded: able to target and abrogate aggregates at the elongation phase
[6]
  toxicity in HeLa cells (MTS): Significant toxicity; also recorded: significantly toxic
[4]
  inhibition of R248W mutant p53 aggregation by ADH compounds (ThT fluorescence): inhibit mutant p53 aggregation with varying levels of effectiveness
[2]
  effect of ADH compounds on MIA PaCa-2 cell viability (MTS): highly significant toxicity; also recorded: extremely significant effect on cell viability
[3]
  toxicity in MCF-7 cells (MTS): No significant toxicity; also recorded: do not induce significant toxicity

## COC(=O)c1ccc(NC(=O)c2ccc(NC(=O)c3ccc([N+](=O)[O-])c(OCC(C)C)n3)c(OCCCN)n2)c(OCCCN)n1 [ADH-46]
[1]
  toxicity in COS-7 cells (MTS): No significant toxicity; also recorded: do not induce significant toxicity
[5]
  abrogation of R248W aggregates at the elongation phase: abrogate aggregation at the elongation phase; also recorded: able to target and abrogate aggregates at the elongation phase
[6]
  toxicity in HeLa cells (MTS): Significant toxicity; also recorded: significantly toxic
[4]
  inhibition of R248W mutant p53 aggregation by ADH compounds (ThT fluorescence): inhibit mutant p53 aggregation with varying levels of effectiveness
[2]
  effect of ADH compounds on MIA PaCa-2 cell viability (MTS): highly significant toxicity; also recorded: extremely significant effect on cell viability
[3]
  toxicity in MCF-7 cells (MTS): No significant toxicity; also recorded: do not induce significant toxicity

## ReACp53: recently developed peptide that targets p53 aggregation, oligoarginine tag, (image prefix) RPILTRITLE (also: oligoarginine tag) [reference compound]
[1]
  toxicity in COS-7 cells (MTS): No significant toxicity; also recorded: does not appear to induce toxicity
[6]
  toxicity in HeLa cells (MTS): induce significant toxicity; also recorded: significantly toxic
[2]
  cytotoxicity of peptides in MIA PaCa-2 cells (MTS): induce cell death; also recorded: significantly cytotoxic
[3]
  toxicity in MCF-7 cells (MTS): No significant toxicity; also recorded: does not appear to induce toxicity
